Results taken from US20230141101A1, “PDE4 INHIBITOR COMPOUND AND MEDICAL USE THEREOF” (Suzhou Longbotai Pharmaceuticals Co., Ltd., priority 2020, published 2023).

What was measured:
Type in all cases: biochemical
Conditions in all cases: 20 nM
PDE4A1A = target: T1, PDE4A1A (Homo sapiens, UniProt P27815); assay: PDE4 inhibitory activity assay (FAM-cAMP enzymatic reaction), PDE4A1A
T1 construct: purchased BPS 60040
Method in brief: (§1)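 Each isoform is incubated with test compound for 15 min at room temperature before FAM-cAMP substrate starts a 30-min reaction.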

PDE4B1 = target: T2, PDE4B1 (Homo sapiens, UniProt Q07343); assay: PDE4 inhibitory activity assay (FAM-cAMP enzymatic reaction), PDE4B1
T2 construct: purchased BPS 60041
Method in brief: as §1

PDE4D2 = PDE4D2 (Homo sapiens, UniProt Q08499); assay: PDE4 inhibitory activity assay (FAM-cAMP enzymatic reaction), PDE4D2
Method in brief: as §1

Sequence of PDE4D2 (Q08499 303-809): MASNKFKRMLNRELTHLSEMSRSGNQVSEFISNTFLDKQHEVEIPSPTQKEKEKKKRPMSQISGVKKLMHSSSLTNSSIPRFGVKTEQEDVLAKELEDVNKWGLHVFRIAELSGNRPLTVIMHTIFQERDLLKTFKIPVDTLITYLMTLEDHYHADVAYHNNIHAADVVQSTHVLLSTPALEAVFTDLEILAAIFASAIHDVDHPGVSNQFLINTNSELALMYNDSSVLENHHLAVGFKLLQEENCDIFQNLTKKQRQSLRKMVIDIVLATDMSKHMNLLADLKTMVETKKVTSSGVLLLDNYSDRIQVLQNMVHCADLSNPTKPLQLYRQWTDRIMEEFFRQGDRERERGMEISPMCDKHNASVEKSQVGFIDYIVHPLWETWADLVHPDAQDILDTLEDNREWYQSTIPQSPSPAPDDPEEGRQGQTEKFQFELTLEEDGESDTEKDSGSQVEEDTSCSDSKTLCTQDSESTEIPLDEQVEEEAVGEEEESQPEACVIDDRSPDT
T2 sequence (Q07343 whole entry): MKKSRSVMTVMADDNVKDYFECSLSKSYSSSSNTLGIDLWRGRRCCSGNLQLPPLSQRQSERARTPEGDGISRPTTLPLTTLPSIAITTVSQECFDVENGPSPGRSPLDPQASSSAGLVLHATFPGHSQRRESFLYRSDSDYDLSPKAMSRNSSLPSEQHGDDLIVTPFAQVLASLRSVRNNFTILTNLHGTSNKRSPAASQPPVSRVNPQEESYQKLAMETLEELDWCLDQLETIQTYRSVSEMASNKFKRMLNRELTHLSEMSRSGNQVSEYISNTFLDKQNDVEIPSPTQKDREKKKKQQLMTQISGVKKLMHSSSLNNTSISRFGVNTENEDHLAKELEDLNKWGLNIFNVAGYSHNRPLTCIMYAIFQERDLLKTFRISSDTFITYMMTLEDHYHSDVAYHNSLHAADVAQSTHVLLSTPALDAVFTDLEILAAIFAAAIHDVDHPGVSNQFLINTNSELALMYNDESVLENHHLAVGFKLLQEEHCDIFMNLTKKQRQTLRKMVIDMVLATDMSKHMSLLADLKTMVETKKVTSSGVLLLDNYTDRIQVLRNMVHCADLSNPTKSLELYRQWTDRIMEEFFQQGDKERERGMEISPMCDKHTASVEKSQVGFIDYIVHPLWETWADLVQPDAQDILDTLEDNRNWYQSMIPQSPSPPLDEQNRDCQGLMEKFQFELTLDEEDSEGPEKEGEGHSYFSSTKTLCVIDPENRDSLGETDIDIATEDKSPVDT
T1 sequence (P27815 1-647 isoform P27815-4): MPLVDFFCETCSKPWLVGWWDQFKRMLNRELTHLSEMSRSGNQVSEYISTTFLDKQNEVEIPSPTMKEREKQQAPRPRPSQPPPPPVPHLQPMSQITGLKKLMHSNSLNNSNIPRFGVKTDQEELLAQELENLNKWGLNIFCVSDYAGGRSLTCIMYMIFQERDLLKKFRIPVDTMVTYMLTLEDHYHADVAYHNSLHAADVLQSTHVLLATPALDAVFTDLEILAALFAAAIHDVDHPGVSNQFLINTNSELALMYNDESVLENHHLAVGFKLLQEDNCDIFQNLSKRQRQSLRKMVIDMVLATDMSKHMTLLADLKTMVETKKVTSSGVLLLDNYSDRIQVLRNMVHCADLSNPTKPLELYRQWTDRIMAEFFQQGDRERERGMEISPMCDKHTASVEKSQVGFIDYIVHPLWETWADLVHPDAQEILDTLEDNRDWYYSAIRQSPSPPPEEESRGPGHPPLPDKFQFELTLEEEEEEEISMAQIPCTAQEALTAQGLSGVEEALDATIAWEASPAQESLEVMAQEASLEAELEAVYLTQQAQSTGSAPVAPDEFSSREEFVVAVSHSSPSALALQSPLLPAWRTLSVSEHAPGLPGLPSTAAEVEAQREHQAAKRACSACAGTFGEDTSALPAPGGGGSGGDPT

Row | SMILES | PDE4 A1 inhibitory effect at 20 nM (PDE4A1A) | PDE4 B1 inhibitory effect at 20 nM (PDE4B1) | PDE4 D2 inhibitory effect at 20 nM (PDE4D2)
1 | CCOc1nc([C@@H](CS(C)(=O)=O)n2c(=O)[nH]c3c(C)c(-c4c(F)cccc4F)cnc32)ccc1OC [Ex. 23, (S)-6-(2,6-difluorophenyl)-3-(1-(6-ethoxy-5-methoxypyridin-2-yl)-2-(methylsulfonyl)ethyl)-7-methyl-1H-imidazo[4,5-b]pyridin-2(3H)-one] | + | + | +
2 | CCOC(=O)c1ccc2c(c1)[nH]c(=O)n2[C@H](CS(C)(=O)=O)c1ccc(OC)c(OCC)n1 [Ex. 212, (S)-ethyl 1-(1-(6-ethoxy-5-methoxypyridin-2-yl)-2-(methylsulfonyl)ethyl)-2-oxo-2,3-dihydro-1H-benzo[d]imidazole-5-carboxylate] | + | + | +
3 | CCOc1nc([C@@H](CS(C)(=O)=O)n2c(=O)[nH]c3c(C)c(-c4cccc(C)c4C)cnc32)ccc1OC [Ex. 33, (S)-6-(2,3-dimethylphenyl)-3-(1-(6-ethoxy-5-methoxypyridin-2-yl)-2-(methylsulfonyl)ethyl)-7-methyl-1H-imidazo[4,5-b]pyridin-2(3H)-one] | + | + | +
4 | CCOc1nc([C@@H](CS(C)(=O)=O)n2c(=O)n(C)c3cc(-c4cc(C)ccc4F)cnc32)ccc1OC [Ex. 114, (S)-6-(2-fluoro-5-methylphenyl)-3-(1-(6-ethoxy-5-methoxypyridin-2-yl)-2-(methylsulfonyl)ethyl)-1-methyl-1H-imidazo[4,5-b]pyridin-2(3H)-one] | + | + | +
5 | CCOc1nc([C@@H](CS(C)(=O)=O)n2c(=O)n(C)c3cc(-c4cccc(C)c4C)cnc32)ccc1OC [Ex. 104, (S)-6-(2,3-dimethylphenyl)-3-(1-(6-ethoxy-5-methoxypyridin-2-yl)-2-(methylsulfonyl)ethyl)-1-methyl-1H-imidazo[4,5-b]pyridin-2(3H)-one] | + | + | +
6 | CCOc1nc([C@H](CS(C)(=O)=O)n2c(=O)[nH]c3c(C)c(-c4cccc(F)c4F)cnc32)ccc1OC [Ex. 26, (R)-6-(2,3-difluorophenyl)-3-(1-(6-ethoxy-5-methoxypyridin-2-yl)-2-(methylsulfonyl)ethyl)-7-methyl-1H-imidazo[4,5-b]pyridin-2(3H)-one] | − | − | −
7 | CCOc1nc([C@@H](CS(C)(=O)=O)n2c(=O)[nH]c3c(C)c(-c4cccc(OC)c4F)cnc32)ccc1OC [Ex. 42, (S)-6-(2-fluoro-3-methoxyphenyl)-3-(1-(6-ethoxy-5-methoxypyridin-2-yl)-2-(methylsulfonyl)ethyl)-7-methyl-1H-imidazo[4,5-b]pyridin-2(3H)-one] | + | + | +
8 | CCOc1nc([C@@H](CS(C)(=O)=O)n2c(=O)[nH]c3cc(-c4ccc(C)cc4C)ccc32)ccc1OC [Ex. 162, (S)-5-(2,4-dimethylphenyl)-1-(1-(6-ethoxy-5-methoxypyridin-2-yl)-2-(methylsulfonyl)ethyl)-1H-benzo[d]imidazol-2(3H)-one] | + | + | +
9 | CCOc1nc([C@@H](CS(C)(=O)=O)n2c(=O)[nH]c3cc(-c4cc(C)ccc4C)ccc32)ccc1OC [Ex. 164, (S)-5-(2,5-dimethylphenyl)-1-(1-(6-ethoxy-5-methoxypyridin-2-yl)-2-(methylsulfonyl)ethyl)-1H-benzo[d]imidazol-2(3H)-one] | + | + | +
10 | CCOc1nc(C(CS(C)(=O)=O)N2C(=O)c3csc(NC(C)=O)c3C2=O)ccc1OC (stereo not drawn) [Ex. 224, N-(5-(1-(6-ethoxy-5-methoxypyridin-2-yl)-2-(methylsulfonyl)ethyl)-4,6-dioxo-5,6-dihydro-4H-thieno[3,4-c]pyrrol-1-yl)acetamide] | + | + | +
11 | CCOc1nc([C@@H](CS(C)(=O)=O)n2c(=O)[nH]c3cc(-c4c(C)cccc4C)cnc32)ccc1OC [Ex. 105, (S)-6-(2,6-dimethylphenyl)-3-(1-(6-ethoxy-5-methoxypyridin-2-yl)-2-(methylsulfonyl)ethyl)-1H-imidazo[4,5-b]pyridin-2(3H)-one] | + | + | +
12 | CCOc1nc([C@@H](CS(C)(=O)=O)n2c(=O)[nH]c3cc(-c4ccc(F)cc4OC)cnc32)ccc1OC [Ex. 119, (S)-6-(4-fluoro-2-methoxyphenyl)-3-(1-(6-ethoxy-5-methoxypyridin-2-yl)-2-(methylsulfonyl)ethyl)-1H-imidazo[4,5-b]pyridin-2(3H)-one] | + | + | +
13 | CCOc1nc([C@@H](CS(C)(=O)=O)n2c(=O)[nH]c3cc(-c4cccc(F)c4C)ccc32)ccc1OC [Ex. 173, (S)-5-(3-fluoro-2-methylphenyl)-1-(1-(6-ethoxy-5-methoxypyridin-2-yl)-2-(methylsulfonyl)ethyl)-1H-benzo[d]imidazol-2(3H)-one] | + | + | +
14 | CCOc1nc([C@@H](CS(C)(=O)=O)n2c(=O)[nH]c3c(C)c(-c4ccccc4F)cnc32)ccc1OC(F)F [Ex. 60, (S)-3-(1-(5-(difluoromethoxy)-6-ethoxypyridin-2-yl)-2-(methylsulfonyl)ethyl)-6-(2-fluorophenyl)-7-methyl-1H-imidazo[4,5-b]pyridin-2(3H)-one] | + | + | +
15 | CCOc1nc([C@@H](CS(C)(=O)=O)n2c(=O)n(C)c3cc(-c4ccccc4F)cnc32)ccc1OC [Ex. 126, (S)-3-(1-(6-ethoxy-5-methoxypyridin-2-yl)-2-(methylsulfonyl)ethyl)-6-(2-fluorophenyl)-1-methyl-1H-imidazo[4,5-b]pyridin-2(3H)-one] | + | + | +
16 | CCOc1nc([C@@H](CS(C)(=O)=O)n2c(=O)[nH]c3c(-c4ccccc4OC)cccc32)ccc1OC [Ex. 203, (S)-1-(1-(6-ethoxy-5-methoxypyridin-2-yl)-2-(methylsulfonyl)ethyl)-4-(2-methoxyphenyl)-1H-benzo[d]imidazol-2(3H)-one] | + | + | +
17 | CCOc1nc([C@@H](CS(C)(=O)=O)N2C(=O)c3csc(NC(=O)CN4CCCCC4)c3C2=O)ccc1OC [Ex. 230, (S)—N-(5-(1-(6-ethoxy-5-methoxypyridin-2-yl)-2-(methylsulfonyl)ethyl)-4,6-dioxo-5,6-dihydro-4H-thieno[3,4-c]pyrrol-1-yl)-2-(piperidin-1-yl)acetamide] | + | + | +
18 | CCOc1nc([C@@H](CS(C)(=O)=O)n2c(=O)[nH]c3c(C)c(-c4cc(F)ccc4C)cnc32)ccc1OC [Ex. 36, (S)-6-(5-fluoro-2-methylphenyl)-3-(1-(6-ethoxy-5-methoxypyridin-2-yl)-2-(methylsulfonyl)ethyl)-7-methyl-1H-imidazo[4,5-b]pyridin-2(3H)-one] | + | + | +
19 | CCOc1nc([C@H](CS(C)(=O)=O)N2Cc3cccc(NC(=O)CC)c3C2=O)ccc1OC [Ex. 220, (R)—N-(2-(1-(6-ethoxy-5-methoxypyridin-2-yl)-2-(methylsulfonyl)ethyl)-3-oxoisoindolin-4-yl)propionamide] | − | − | −
20 | CCOc1nc([C@H](CS(C)(=O)=O)N2Cc3cccc(NC(=O)C4CC4)c3C2=O)ccc1OC [Ex. 218, (R)—N-(2-(1-(6-ethoxy-5-methoxypyridin-2-yl)-2-(methylsulfonyl)ethyl)-3-oxoisoindolin-4-yl)cyclopropanecarboxamide] | + | + | +
21 | CCOc1nc([C@@H](CS(C)(=O)=O)n2c(=O)[nH]c3cc(-c4ccccc4C)ccc32)ccc1OC [Ex. 139, (S)-1-(1-(6-ethoxy-5-methoxypyridin-2-yl)-2-(methylsulfonyl)ethyl)-5-(o-methylphenyl)-1H-benzo[d]imidazol-2(3H)-one] | + | + | +
22 | CCOc1nc([C@@H](CS(C)(=O)=O)n2c(=O)n(C)c3cc(-c4cc(F)ccc4F)cnc32)ccc1OC [Ex. 93, (S)-6-(2,5-difluorophenyl)-3-(1-(6-ethoxy-5-methoxypyridin-2-yl)-2-(methylsulfonyl)ethyl)-1-methyl-1H-imidazo[4,5-b]pyridin-2(3H)-one] | + | + | +
23 | CCOc1nc([C@@H](CS(C)(=O)=O)n2c(=O)n(C)c3cc(-c4ccc(C)cc4C)cnc32)ccc1OC [Ex. 100, (S)-6-(2,4-dimethylphenyl)-3-(1-(6-ethoxy-5-methoxypyridin-2-yl)-2-(methylsulfonyl)ethyl)-1-methyl-1H-imidazo[4,5-b]pyridin-2(3H)-one] | + | + | +
